Measured values as given in patent publication US7772190B2, “Didepsipeptide-based endoparasiticides, new didepsipeptides and process for preparing the same” (Bayer Animal Health GmbH, priority 1995, dated 2010).

What was measured:
Haemonchus contortus = experiment: In vivo nematode test Haemonchus contortus/sheep; conditions: experimentally infected sheep; orally and/or intravenously as pure active compound; complete cessation of oviposition (worm eggs in faeces) after treatment
Protocol: Haemonchus contortus/Sheep
Sheep experimentally infected with Haemonchus contortus were treated after expiry of the prepatency time of the parasite. The active compounds were administered orally and/or intravenously as pure active compound.
(§1) The degree of effectiveness is determined by quantitatively counting the worm eggs excreted with the faeces before and after treatment.
(§2) Complete cessation of oviposition after treatment means that the worms have been expelled or are so damaged that they no longer produce eggs (effective dose).
Active compounds tested and effective doses can be seen from the following tables.

[1] = tested on: Trichostrongylus colubriformis; experiment: In vivo nematode test Trichostrongylus colubriformis/sheep; conditions: experimentally infected sheep; orally and/or intravenously as pure active compound; complete cessation of oviposition (worm eggs in faeces) after treatment
Protocol: Trichostrongylus colubriformis/Sheep
Sheep experimentally infected with Trichostrongylus colubriformis were treated after expiry of the prepatency time of the parasite. The active compounds were administered orally and/or intravenously as pure active compound.
as §1, §2
Active compounds tested and effective doses can be seen from the following table.

Compound | Effective dose (Haemonchus contortus) [mg/kg] | Effective dose [1] [mg/kg]
COC(=O)C(C)OC(=O)C(C)N(C)C(=O)N(C)C(=O)N(C)C [Example 2, Methyl N-methyl-N-trimethylallophanoyl-L-alanyl-D-lactate] | 5 | 5
COC(=O)C1CCCCN1C(=O)C(C)OC(=O)C(C)N(C)C(=O)N(C)C(=O)N(C)C [Example 8, N-methyl-N-trimethylallophanoyl-L-alanyl-D-lactyl-L-homoproline Methyl Ester] | 5 | 
